Like-named read-outs stand apart in the source and are kept apart here.
What was measured:
[1] = system: A. baumannii ATCC 19606 cells; experiment: Cell morphology assay, bright-field microscopy; type: cell-based, Acinetobacter baumannii; conditions: A. baumannii ATCC 19606, overnight exposure at 1× MIC
Protocol: In order to confirm the involvement of PBPs as targets of enmetazobactam, cell morphology assays involving exposure to enmetazobactam and sulbactam were performed following the methodology described in Supplementary materials and methods.
To confirm the involvement of PBPs as targets of enmetazobactam, the cellular morphology of A. baumannii ATCC 19606 reference strain was analyzed after exposure to the compound at different concentrations. Bright-field microscopy was used to monitor the cell morphology. […] For microscopic visualization, aliquots of each sample were obtained, stained with crystal violet solution and observed using an Olympus BX61 microscope (Olympus).
Changes in cell morphology were determined on the basis of alterations in septal integrity, abnormal elongation, spheroplast formation and filamentation, patterns previously associated with the selective inhibition of PBP1, PBP2 and PBP3 in Gram-negative bacilli. Specifically, PBP1 inhibition has been linked to cell lysis, PBP2 inhibition has been linked to spherification, and PBP3 inhibition to defective cell division and filament formation (1, 2). The results were qualitatively compared across different treatments to infer the potential selectivity of enmetazobactam for specific PBPs.

[2] = system: A. non-baumannii isolates (n = 87); experiment: MIC, broth microdilution (EUCAST), A. non-baumannii isolates; type: cell-based, Acinetobacter spp. (non-baumannii); conditions: for MIC: in combinations ETZ fixed at 8 mg/L
From the text: The bacterial strains used in this study comprised 208 clinical isolates from the Spanish National Acinetobacter spp. 2020 Multicenter Collection, which was previously characterized in detail by our research group, including whole-genome sequencing, phylogenetics studies, clonal dynamics, and resistance mechanisms ([2], [29]). Additionally, a collection of A. baumannii ATCC 17978 transformants coding the blaOXA-23, blaOXA-24/40, blaOXA-51, blaOXA-58, blaOXA-143, and blaOXA-201 genes, previously constructed and described by our group ([30]), was used to determine the activity of enmetazobactam against strains carrying the main CHDLs of A. baumannii.
The antimicrobial susceptibility of the 208 Acinetobacter spp. isolates was assessed using the broth microdilution method, as described in the European Committee on Antimicrobial Susceptibility Testing (EUCAST) v.15 guidelines (http://www.eucast.org/clinical_breakpoints). […] MICs for enmetazobactam alone were assessed as well. […] Subsequently, MIC testing was also conducted with a collection of A. baumannii ATCC 17978 transformants expressing clinically relevant OXA-like carbapenemase genes.
The A. baumannii ATCC 19606 strain was used as the reference strain in all susceptibility experiments, in duplicate assays. Antibiotics were purchased from Sigma-Aldrich, except enmetazobactam and durlobactam, which were obtained from Advanz Pharma and MedChemExpress, respectively.

Question: With `C[C@@H](O)[C@H]1C(=O)N2C(C(=O)O)=C(SCCN=CN)C[C@H]12` [imipenem] as the molecule, how does the cell morphology [1] read?
Answer: rounded and spherical cells

Question: What about the “MIC distribution 0.12” value [2] of the same molecule?
Answer: 71.3

Question: What about the MIC ([2]; Acinetobacter baylyi, isolate NO-Ab27, Acinetobacter baylyi, read-out: MIC) of the same molecule?
Answer: 0.12 µg/mL

Question: And the MIC ([2]; Acinetobacter beijerinckii, isolate NO-Ab122, Acinetobacter beijerinckii, read-out: MIC)?
Answer: 0.12 µg/mL

Question: And the MIC ([2]; Acinetobacter bereziniae, isolate NO-Ab70, Acinetobacter bereziniae, read-out: MIC)?
Answer: 0.12 µg/mL

Question: And the MIC ([2]; Acinetobacter bereziniae, isolate NO-Ab84, Acinetobacter bereziniae, read-out: MIC)?
Answer: 0.12 µg/mL

Question: What about the MIC ([2]; Acinetobacter bereziniae, isolate NO-Ab104, Acinetobacter bereziniae, read-out: MIC) of the same molecule?
Answer: 0.12 µg/mL

Question: What about the MIC ([2]; Acinetobacter bereziniae, isolate NO-Ab114, Acinetobacter bereziniae, read-out: MIC) of the same molecule?
Answer: 0.12 µg/mL

Question: What about the MIC ([2]; Acinetobacter bereziniae, isolate NO-Ab115, Acinetobacter bereziniae, read-out: MIC) of the same molecule?
Answer: 0.25 µg/mL

Question: What about the MIC ([2]; Acinetobacter bereziniae, isolate NO-Ab116, Acinetobacter bereziniae, read-out: MIC) of the same molecule?
Answer: 0.25 µg/mL

Question: And the MIC ([2]; Acinetobacter bereziniae, isolate NO-Ab117, Acinetobacter bereziniae, read-out: MIC)?
Answer: 0.12 µg/mL

Question: What about the MIC ([2]; Acinetobacter bereziniae, isolate NO-Ab129, Acinetobacter bereziniae, read-out: MIC) of the same molecule?
Answer: 0.25 µg/mL

Question: And the MIC ([2]; Acinetobacter bereziniae, isolate NO-Ab156, Acinetobacter bereziniae, read-out: MIC)?
Answer: 0.12 µg/mL

Question: What about the MIC ([2]; Acinetobacter calcoaceticus, isolate NO-Ab85, Acinetobacter calcoaceticus, read-out: MIC) of the same molecule?
Answer: 0.12 µg/mL

Question: What about the MIC ([2]; Acinetobacter calcoaceticus, isolate NO-Ab94, Acinetobacter calcoaceticus, read-out: MIC) of the same molecule?
Answer: ≤ 0.06 µg/mL

Question: What about the MIC ([2]; Acinetobacter calcoaceticus, isolate NO-Ab108, Acinetobacter calcoaceticus, read-out: MIC) of the same molecule?
Answer: ≤ 0.06 µg/mL

Question: What about the MIC ([2]; Acinetobacter calcoaceticus, isolate NO-Ab161, Acinetobacter calcoaceticus, read-out: MIC) of the same molecule?
Answer: 0.12 µg/mL

Question: And the MIC ([2]; Acinetobacter calcoaceticus, isolate NO-Ab198, Acinetobacter calcoaceticus, read-out: MIC)?
Answer: ≤ 0.06 µg/mL

Question: What about the MIC ([2]; Acinetobacter calcoaceticus, isolate NO-Ab205, Acinetobacter calcoaceticus, read-out: MIC) of the same molecule?
Answer: 0.25 µg/mL

Question: And the MIC ([2]; Acinetobacter calcoaceticus, isolate NO-Ab211, Acinetobacter calcoaceticus, read-out: MIC)?
Answer: 0.12 µg/mL

Question: And the MIC ([2]; Acinetobacter courvalinii, isolate NO-Ab216, Acinetobacter courvalinii, read-out: MIC)?
Answer: 0.5 µg/mL

Question: And the MIC ([2]; Acinetobacter dispersus, isolate NO-Ab2, Acinetobacter dispersus, read-out: MIC)?
Answer: ≤ 0.06 µg/mL

Question: And the MIC ([2]; Acinetobacter guillouiae, isolate NO-Ab69, Acinetobacter guillouiae, read-out: MIC)?
Answer: ≤ 0.06 µg/mL

Question: What about the MIC ([2]; Acinetobacter guillouiae, isolate NO-Ab74, Acinetobacter guillouiae, read-out: MIC) of the same molecule?
Answer: 0.25 µg/mL

Question: What about the MIC ([2]; Acinetobacter haemolyticus, isolate NO-Ab92, Acinetobacter haemolyticus) of the same molecule?
Answer: 0.12 µg/mL

Question: And the MIC ([2]; Acinetobacter haemolyticus, isolate NO-Ab177, Acinetobacter haemolyticus)?
Answer: 0.12 µg/mL

Question: What about the MIC ([2]; Acinetobacter haemolyticus, isolate NO-Ab217, Acinetobacter haemolyticus) of the same molecule?
Answer: 0.12 µg/mL

Question: What about the MIC ([2]; Acinetobacter johnsonii, isolate NO-Ab101, Acinetobacter johnsonii, read-out: MIC) of the same molecule?
Answer: 0.12 µg/mL

Question: And the MIC ([2]; Acinetobacter junii, isolate NO-Ab76, Acinetobacter junii, read-out: MIC)?
Answer: ≤ 0.06 µg/mL

Question: And the MIC ([2]; Acinetobacter junii, isolate NO-Ab77, Acinetobacter junii, OXA-24/40, read-out: MIC)?
Answer: 32 µg/mL

Question: What about the MIC ([2]; Acinetobacter lactucae, isolate NO-Ab60, Acinetobacter dijkshoorniae, read-out: MIC) of the same molecule?
Answer: 0.25 µg/mL

Question: What about the MIC ([2]; Acinetobacter lactucae, isolate NO-Ab63, Acinetobacter dijkshoorniae, read-out: MIC) of the same molecule?
Answer: 0.25 µg/mL

Question: And the MIC ([2]; Acinetobacter lactucae, isolate NO-Ab65, Acinetobacter dijkshoorniae, read-out: MIC)?
Answer: 0.25 µg/mL

Question: What about the MIC ([2]; Acinetobacter lactucae, isolate NO-Ab86, Acinetobacter dijkshoorniae, read-out: MIC) of the same molecule?
Answer: 0.12 µg/mL

Question: And the MIC ([2]; Acinetobacter lactucae, isolate NO-Ab88, Acinetobacter dijkshoorniae, read-out: MIC)?
Answer: 0.12 µg/mL

Question: What about the MIC ([2]; Acinetobacter lactucae, isolate NO-Ab91, Acinetobacter dijkshoorniae, read-out: MIC) of the same molecule?
Answer: 0.12 µg/mL

Question: And the MIC ([2]; Acinetobacter lactucae, isolate NO-Ab121, Acinetobacter dijkshoorniae, read-out: MIC)?
Answer: 0.12 µg/mL

Question: What about the MIC ([2]; Acinetobacter lactucae, isolate NO-Ab125, Acinetobacter dijkshoorniae, read-out: MIC) of the same molecule?
Answer: ≤ 0.06 µg/mL

Question: And the MIC ([2]; Acinetobacter lactucae, isolate NO-Ab160, Acinetobacter dijkshoorniae, read-out: MIC)?
Answer: 0.12 µg/mL

Question: And the MIC ([2]; Acinetobacter nosocomialis, isolate NO-Ab43, Acinetobacter nosocomialis, read-out: MIC)?
Answer: ≤ 0.06 µg/mL

Question: And the MIC ([2]; Acinetobacter nosocomialis, isolate NO-Ab68, Acinetobacter nosocomialis, OXA-24/40, read-out: MIC)?
Answer: 32 µg/mL

Question: And the MIC ([2]; Acinetobacter nosocomialis, isolate NO-Ab98, Acinetobacter nosocomialis, read-out: MIC)?
Answer: 0.12 µg/mL

Question: What about the MIC ([2]; Acinetobacter nosocomialis, isolate NO-Ab208, Acinetobacter nosocomialis, read-out: MIC) of the same molecule?
Answer: 0.12 µg/mL

Question: And the MIC ([2]; Acinetobacter pittii, isolate NO-Ab59, Acinetobacter pittii, read-out: MIC)?
Answer: 0.25 µg/mL

Question: What about the MIC ([2]; Acinetobacter pittii, isolate NO-Ab66, Acinetobacter pittii, read-out: MIC) of the same molecule?
Answer: 0.25 µg/mL

Question: What about the MIC ([2]; Acinetobacter pittii, isolate NO-Ab73, Acinetobacter pittii, read-out: MIC) of the same molecule?
Answer: ≤ 0.06 µg/mL

Question: What about the MIC ([2]; Acinetobacter pittii, isolate NO-Ab75, Acinetobacter pittii, read-out: MIC) of the same molecule?
Answer: 0.25 µg/mL

Question: What about the MIC ([2]; Acinetobacter pittii, isolate NO-Ab78, Acinetobacter pittii, read-out: MIC) of the same molecule?
Answer: ≤ 0.06 µg/mL

Question: And the MIC ([2]; Acinetobacter pittii, isolate NO-Ab82, Acinetobacter pittii, read-out: MIC)?
Answer: ≤ 0.06 µg/mL

Question: What about the MIC ([2]; Acinetobacter pittii, isolate NO-Ab89, Acinetobacter pittii, read-out: MIC) of the same molecule?
Answer: 0.12 µg/mL

From publication PMC12888861, “Antibacterial activity of enmetazobactam against Acinetobacter spp.: a molecular dissection of mechanism of action and resistance determinants” (Antimicrobial Agents and Chemotherapy, 2025)
